Where “and” joins values, the source holds several entries; their conditions need not be identical. Equal entries are not always repeated. Where two headings read alike, the source gives them in different places.
Tests used:
GAL-3C = GAL-3C (Homo sapiens, UniProt P17931); parameters: human Galectin-3 (GAL-3C, residues 107–250, molecular weight (MW) 16 327 Da); details: known Kd used to calculate glycan concentration; cited from earlier work
[1] = system: MAA (Maackia amurensis agglutinin); assay: COIN-CaR-nMS; assay type: binding
SARS-CoV-2 RBD = SARS-CoV-2 RBD (Severe acute respiratory syndrome coronavirus 2, UniProt P0DTC2); assay: biochemical; assay type: binding; details: pH 6.9
Sig7-Fc = Sig7-Fc (Homo sapiens, UniProt Q9Y286); assay: COIN-CaR-nMS; assay type: binding; parameters: Siglec 7-Fc (Sig7-Fc, residue 1–345, MW 150 kDa); His6 (C); made in house; host or cells: wild-type CHO cells
Sequence of Sig7-Fc (Q9Y286 19-345): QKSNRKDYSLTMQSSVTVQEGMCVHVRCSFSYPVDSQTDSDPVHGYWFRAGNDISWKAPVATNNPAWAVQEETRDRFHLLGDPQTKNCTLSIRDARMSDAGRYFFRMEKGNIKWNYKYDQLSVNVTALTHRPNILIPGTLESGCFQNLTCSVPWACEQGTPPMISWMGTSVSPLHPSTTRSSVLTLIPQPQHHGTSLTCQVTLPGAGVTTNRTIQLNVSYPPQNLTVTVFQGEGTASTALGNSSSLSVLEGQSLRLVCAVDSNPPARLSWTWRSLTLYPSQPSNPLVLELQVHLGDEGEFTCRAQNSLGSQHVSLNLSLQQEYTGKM

[2] = target: SNA (Sambucus nigra agglutinin) (Sambucus nigra, UniProt Q41358); assay: biochemical; assay type: binding
Sequence of SNA (Sambucus nigra agglutinin) (Q41358 309-570 limits assumed): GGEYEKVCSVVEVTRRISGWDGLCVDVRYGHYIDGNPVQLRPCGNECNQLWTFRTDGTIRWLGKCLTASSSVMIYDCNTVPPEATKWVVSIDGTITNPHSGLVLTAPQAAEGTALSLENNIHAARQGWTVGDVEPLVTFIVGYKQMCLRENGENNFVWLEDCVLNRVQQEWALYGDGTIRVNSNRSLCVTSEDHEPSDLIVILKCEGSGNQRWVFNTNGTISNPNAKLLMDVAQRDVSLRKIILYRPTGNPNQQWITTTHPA
Sequence of SNA (Sambucus nigra agglutinin) (Q41358 29-289 partner limits assumed): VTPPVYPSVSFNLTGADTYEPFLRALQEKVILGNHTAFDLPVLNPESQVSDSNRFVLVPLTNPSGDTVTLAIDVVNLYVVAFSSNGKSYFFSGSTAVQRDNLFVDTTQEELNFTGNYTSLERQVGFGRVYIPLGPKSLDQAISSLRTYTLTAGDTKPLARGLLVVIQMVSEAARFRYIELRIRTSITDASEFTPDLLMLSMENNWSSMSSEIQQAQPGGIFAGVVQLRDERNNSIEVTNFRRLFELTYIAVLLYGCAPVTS

SNA = SNA (Sambucus nigra, UniProt Q41358); assay: biochemical; assay type: binding; details: apparent Kd by ITC (Literature)
Sequence of SNA (Q41358 309-570 limits assumed): as the sequence (Q41358 309-570 limits assumed) above
Sequence of SNA (Q41358 29-289 partner limits assumed): as the sequence (Q41358 29-289 partner limits assumed) above

CD22-Fc = target: T1, CD22-Fc (Homo sapiens, UniProt P20273); assay: COIN-CaR-nMS; assay type: binding; details: N-glycan natural libraries and G21; pH 6.9
T1 construct: His6 (C); made in house; host or cells: wild-type CHO cells
T1 sequence (P20273 20-332 limits assumed): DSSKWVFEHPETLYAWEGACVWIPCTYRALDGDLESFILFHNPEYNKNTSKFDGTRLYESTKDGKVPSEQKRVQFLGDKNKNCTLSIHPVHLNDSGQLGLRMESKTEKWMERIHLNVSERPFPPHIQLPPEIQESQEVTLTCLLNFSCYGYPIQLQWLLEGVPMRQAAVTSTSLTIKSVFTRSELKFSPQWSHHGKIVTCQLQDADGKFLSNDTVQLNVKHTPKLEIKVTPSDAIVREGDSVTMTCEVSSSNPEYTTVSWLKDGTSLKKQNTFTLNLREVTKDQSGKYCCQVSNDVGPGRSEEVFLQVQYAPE

Siglec-7 = details: ITC; cited from earlier work
[3] = N-glycan natural libraries and purified oligosaccharides, pH 6.9, read-out: Kd

Sequence of GAL-3C (P17931 107-250): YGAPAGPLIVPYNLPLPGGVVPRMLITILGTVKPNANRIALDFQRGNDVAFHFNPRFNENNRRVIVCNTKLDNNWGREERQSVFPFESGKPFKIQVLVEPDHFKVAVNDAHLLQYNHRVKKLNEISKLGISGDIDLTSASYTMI

| Compound | Kd (GAL-3C) | fold weaker binding than G25 [1] | Kd (SARS-CoV-2 RBD) | Kd (Sig7-Fc; [3]) | Kd ([2]; Kd (COIN-CaR-nMS)) | Kd ([2]; Kd (COIN-CaR-nMS), two ligands) | Kd ([2]; pH 6.9, read-out: Kd, Native library (-NeuS)) | Kd (SNA) | Kd (CD22-Fc) | Kd (Siglec-7) | Kd (Sig7-Fc; G21 0.5 μM and G29 30 μM, read-out: Kd (COIN-CaR-nMS), two ligands) | Kd (Sig7-Fc; G21 1.0 μM and G29 30 μM, read-out: Kd (COIN-CaR-nMS), two ligands) | Kd (Sig7-Fc; G21 5 μM and G29 30 μM, read-out: Kd (COIN-CaR-nMS), two ligands) | Kd (Sig7-Fc; G21 10 μM and G29 30 μM, read-out: Kd (COIN-CaR-nMS), two ligands) | fold weaker ligand than G23 [2] |
| --- | --- | --- | --- | --- | --- | --- | --- | --- | --- | --- | --- | --- | --- | --- | --- |
| α-D-GalNAc(1→3)-[α-L-Fuc(1→2)]-β-Gal(1→4)-D-GlcNAc [Glycan G24] | 7.2 ± 0.4 µM | – | – | – | – | – | – | – | – | – | – | – | – | – | – |
| CC(=O)N[C@H]1[C@H]([C@H](O)[C@H](O)CO)O[C@@](OC[C@H]2O[C@@H](O[C@H]3[C@H](O)[C@@H](NC(C)=O)C(O)O[C@@H]3CO)[C@H](O)[C@@H](O)[C@H]2O)(C(=O)O)C[C@@H]1O (stereo partly drawn) [Glycan G23, α-D-Neu5Ac-(2→6)-β-D-Gal-(1→4)-D-GlcNAc] | – | 2 fold | 76 ± 9 µM | 265 ± 66 µM | 0.6 µM | 700 nM and 900 nM and 400 nM (2×) and 300 nM and 600 nM | 0.55 ± 0.16 µM | – | – | – | – | – | – | – | – |
| CC(=O)N[C@H]1[C@H]([C@H](O)[C@H](O)CO)O[C@@](OC[C@H]2O[C@@H](O[C@H]3[C@H](O)[C@@H](O)C(O)O[C@@H]3CO)[C@H](O)[C@@H](O)[C@H]2O)(C(=O)O)C[C@@H]1O (stereo partly drawn) [Glycan G21, α-D-Neu5Ac-(2→6)-β-D-Gal-(1→4)-D-Glc] | – | – | – | 236 µM | 1.6 ± 0.4 µM | 2 µM and 1.5 µM and 3.3 µM and 1.7 µM and 1.6 µM and 1.8 µM | – | 1.98 µM and 2 µM | 40 µM | 240 µM | 284 ± 70 µM | 239 ± 50 µM | 366 ± 10 µM | 249 ± 20 µM | 3 fold |
